# Test results from ChEMBL document CHEMBL5523728, “Fragment-Based Discovery of a Series of Allosteric-Binding Site Modulators of β-Glucocerebrosidase” (J Med Chem, 2024).
# Activity calls are given as the source filed them. No cut-off for these calls is given here.
# Molecular target: T1, Lysosomal acid glucosylceramidase (Homo sapiens) (UniProt P04062)
# T1 sequence (whole entry): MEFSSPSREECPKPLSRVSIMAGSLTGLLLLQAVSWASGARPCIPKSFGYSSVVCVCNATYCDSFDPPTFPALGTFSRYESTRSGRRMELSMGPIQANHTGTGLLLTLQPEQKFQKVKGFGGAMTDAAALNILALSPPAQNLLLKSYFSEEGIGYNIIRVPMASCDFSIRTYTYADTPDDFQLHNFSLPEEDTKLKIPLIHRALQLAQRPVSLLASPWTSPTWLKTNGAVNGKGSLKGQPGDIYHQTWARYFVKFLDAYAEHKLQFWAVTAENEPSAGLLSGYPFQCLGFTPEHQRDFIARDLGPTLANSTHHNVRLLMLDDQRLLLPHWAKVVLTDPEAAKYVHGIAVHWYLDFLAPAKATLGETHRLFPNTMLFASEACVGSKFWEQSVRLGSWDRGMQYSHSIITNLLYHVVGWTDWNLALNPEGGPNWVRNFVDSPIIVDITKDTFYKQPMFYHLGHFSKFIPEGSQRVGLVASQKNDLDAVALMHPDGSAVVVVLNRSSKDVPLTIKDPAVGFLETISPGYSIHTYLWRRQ
# Test: not given
# Details: Fibroblast, dose 0.5 mM, time 27.0 hrs
row,inhibition,Compound
1,Active,O[C@H]1[C@H](O)[C@@H](O)[C@@H]2O[C@@H]2[C@@H]1O

# Molecular target: T2, Lysosomal acid glucosylceramidase (Homo sapiens, UniProt P04062)
# T2 sequence (P04062 whole entry): T1 sequence (whole entry)
# Test: Positive allosteric modulation of GCase in human Fibroblast cells using GBA1-FQ2 as substrate preincubated for 24 hrs followed by substrate addition and measured after 3 hrs by Hoechst 33342 staining based imaging analysis
# Assay type: cell-based
# Details: not given
row,EC50,Compound
1,8.9 µM,CCCOc1cc(F)cc(S(=O)(=O)N(C)C[C@@H](N)c2cccc(N(C)C)c2)c1
2,9 µM,C=C(C)c1cccc([C@@H](N)CN(C)S(=O)(=O)c2cc(F)cc(F)c2)c1

# Molecular target: T2, Lysosomal acid glucosylceramidase
# Test: biochemical
# Details: not given
row,Compound,Kd
1,N[C@H](CNS(=O)(=O)c1ccccc1)c1ccccc1,7 µM
2,NCC(O)CNS(=O)(=O)c1ccccc1F (racemic),180 µM
3,c1ccc(CC2CCNCC2)cc1,19 µM
4,Cc1ccc(S(=O)(=O)NCC(C)N)cc1 (racemic),100 µM
5,O=S(=O)(NCC1CC1)c1ccccc1,410 µM

# The remaining lines, values ahead:
row,Kd,Compound
1,1 µM,N[C@H](CNS(=O)(=O)c1cc(F)cc(F)c1)c1ccccc1
2,0.25 µM,CN(C[C@H](N)c1cccc(Cl)c1)S(=O)(=O)c1cc(F)cc(F)c1
3,0.18 µM,CN(C[C@@H](N)c1cccc(Br)c1)S(=O)(=O)c1cc(F)cc(F)c1
4,0.018 µM,CCCOc1cc(F)cc(S(=O)(=O)N(C)C[C@@H](N)c2cccc(N(C)C)c2)c1
5,0.22 µM,CN(CC(F)F)c1cccc([C@@H](N)CN(C)S(=O)(=O)c2cc(F)cc(F)c2)c1
6,0.05 µM,C=C(C)c1cccc([C@@H](N)CN(C)S(=O)(=O)c2cc(F)cc(F)c2)c1
7,3 µM,N[C@H](CNS(=O)(=O)c1cccc(F)c1)c1ccccc1
